PMC8140105 (Scientific Reports, 2021)
Entries after “also recorded” stand apart in the source; their conditions may differ. Each block holds one substance with its values, some of them ahead of it. No end group written: not given here.

Tests used:
[1] = Multiple time regression (MTR) analysis, blood-to-brain influx; type: in vivo, ICR-CD-1 mice; conditions: 125I-labelled, mice, linear model, mean ± standard error
Procedure: Briefly, 0.1 µmol of the lyophilized peptide was dissolved in 100 µL of phosphate buffer (pH 7.4, 25 mM). A Iodo-Gen coated tube (Thermo Scientific, Merelbeke, Belgium) was first of all rinsed with 1 mL of phosphate buffer. Subsequently, 50 µL of sodium iodide solution (1.1 µmol/mL) and 1 mCi of Na^125I solution (Perking Elmer, Zaventem, Belgium) were transferred into this Iodo-Gen coated tube. The oxidation reaction was allowed to proceed for six minutes at room temperature, after which the iodonium solution was transferred to 50 µL of peptide solution (1 mM). The iodination reaction of the peptide was allowed to proceed for another six minutes at room temperature. Finally, the iodinated peptide was purified using a silver filter (Thermo Scientific, Merelbeke, Belgium).
In order to determine whether the peptide could enter the brain, in vivo multiple time regression (MTR) analysis was performed. ICR-CD-1 mice were anesthetized intraperitoneally using a 40% urethane solution (3 g/kg). […] At specified time points after injection (i.e. 1, 3, 5, 10, 12.5 and 15 min, with start and end in duplicate), blood was obtained from the carotid artery followed by decapitation of the mouse. The isolated brain was weighed and radioactivity measured in a gamma counter for 5 min (Wallac Wizard automatic gamma counter, Perkin Elmer, Shelton, CT, USA), as well as from 50 µL serum, which was obtained by centrifuging the collected blood at 10,000g for 15 min at 21 °C. The linear and biphasic modeling of the multiple time regression analysis was performed as previously described.

BV-2 microglia cells = assay: IL-6 and TNFα determination (ELISA); type: cell-based, murine; conditions: BV-2 cells, 10 µM; for microglial activating properties of metabolites (IL-6 production): n = 12
Procedure: BV-2 cells were a kind gift from Prof. Alba Minelli and were grown in RPMI medium supplemented with 10% fetal bovine serum (FBS) and 1% penicillin-streptromycin solution (Life Technologies, Belgium). The cells were cultured in culture flasks (Greiner, Belgium) in an incubator set at 37 °C and 5% CO2. When confluent, cells were detached using a cell scraper and diluted 1:20 approximately every 4 days. Experiments were performed in serum-free DMEM without phenol red.
To investigate the microglia activating properties of the peptide, IL-6 and TNFα levels were determined in cell-free supernatants of BV-2 microglia cells after treatment. BV-2 cells (2 × 10^5 cells/well) were seeded in 24-well plates and treated with peptide for 20 h. ELISA was performed according to the supplier’s protocol (eBioscience, Vienna, Austria). Briefly, after incubation with biotinylated detection antibody, avidin-HRP conjugate and subsequently chromogenic tetramethylbenzidine (TMB) substrate were added. Absorbance was measured at 450 nm and 570 nm using the Multiskan Ascent 354 microplate reader (Thermofisher, Waltham, USA). Concentrations were determined using the standard curve generated using known concentrations of TNFα and IL-6.

liver homogenate = conditions: ICR-CD-1 mice, 37 °C, up to 60 min
kidney homogenate = conditions: ICR-CD-1 mice, 37 °C, up to 60 min
faeces homogenate = conditions: ICR-CD-1 mice, 37 °C, up to 60 min
brain homogenate = conditions: ICR-CD-1 mice, 37 °C, up to 60 min
serum = conditions: 37 °C, up to 60 min

Substance: Dermorphin [reference compound]
- Kin ([1]; i.v. (jugular vein), 1–15 min): 0.35 ± 0.05 µL/g/min
- Vascular brain distribution volume, V0 ([1]; i.v.): 15.93 ± 0.64 µL/g

Substance: SDLPF [metabolite of PapRIV formed in serum]
- microglial activating properties of metabolites (IL-6 production) (BV-2 microglia cells): no activating properties

Substance: DLPFEH [main metabolite of PapRIV formed in all matrices]
- microglial activating properties of metabolites (IL-6 production) (BV-2 microglia cells): to the same extent as the native sequence

Substance: DEHSFLP [DEHSFLP]
- activating properties (IL-6 and TNFα production) (BV-2 microglia cells; scrambled control): no activating properties

- cleaved bond (liver homogenate): S1-D2, major; also recorded: D2-L3
- cleaved bond (kidney homogenate): D2-L3; also recorded: S1-D2, major
- cleaved bond (faeces homogenate): S1-D2, major
- cleaved bond (brain homogenate): S1-D2, major and D2-L
Substance: SDLPFEH
- cleaved bond (serum): S1-D2, major; also recorded: D2-L3; also recorded: F5-E6; also recorded: E6-H7

Substance: DLPF [metabolite of PapRIV formed in serum]
- microglial activating properties of metabolites (IL-6 production) (BV-2 microglia cells): no activating properties
